Test results published in patent US6967211B2, “Remedial agent for chronic articular rheumatism” (Nippon Shinyaku Co. Ltd., priority 2002, dated 2005).
Read-outs that look alike come from different tables or passages of the source. Marks after values point to notes of the source that are not given here.

Assays:
[1] = tested on: CDF1 male mice; conditions: single oral administration
Procedure: 7-week-old CDF1 male mice (6 mice) were used. The compound 1 was suspended in 0.5% methylcellulose and the resulting suspension was orally administered once by oral probe. The mortality rate was investigated after 2 weeks and the LD50 value was calculated by the probit method.

[2] = tested on: type II collagen-induced arthritis; conditions: for Inhibition ratio (%): arthritis score 35 days after primary sensitization
Procedure: 8-week-old DBA/1J male mice (7 to 10 mice) were used. 0.1 ml of an emulsion prepared by mixing a 0.1 M solution of acetic acid in physiological saline (2 mg/ml) of type II collagen derived from bovine joint cartilage and complete Freund's adjuvant at a mixing ratio of 1:1 was injected intradermally at the base of the tail in mice (primary sensitization). 21 days later, 0.1 ml of the emulsion prepared in the same manner as in case of primary sensitization was injected subcutaneously again at the back in mice (secondary sensitization). The test compound was suspended in an aqueous 0.5% methyl cellulose solution and administered orally to the mice once a day, which started from the primary or secondary sensitization. After 35 days from the primary sensitization, symptoms of arthritis was visually observed and the results were used a score of arthritis.

COc1ccc(S(=O)(=O)N(C(C)=O)c2ccccc2/C=C/c2cc[n+]([O-])cc2)cc1 [Compound 1]
toxicity (in words) ([1]; mice): very low toxicity
LD50 value ([1]; mortality after 2 weeks, probit method): 620.5 mg/kg
Inhibition ratio (%) ([2]; 1 mg/kg orally once a day, started from the primary sensitization): −8.5%
inhibitory effect on type II collagen-induced arthritis (in words) ([2]; 5 mg/kg from the primary sensitization, or 5 and 10 mg/kg from the secondary sensitization): significant inhibitory effect
Inhibition ratio (%) ([2]; 5 mg/kg orally once a day, started from the primary sensitization): 69.5* %
Inhibition ratio (%) ([2]; 5 mg/kg orally once a day, started from the secondary sensitization): 69.6* %
Inhibition ratio (%) ([2]; 10 mg/kg orally once a day, started from the secondary sensitization): 100.0** %
